Results published in patent US10023582B2, “6-aryl amino pyridone formamide compound crystal and preparation method therefor” (Chia Tai Tianqing Pharmaceutical Group Co., Ltd., priority 2014, dated 2018).

Assay: Stability test (influencing factors: high temperature/humidity and strong light irradiation), total impurities
Format: physicochemical
Description: A suitable amount of the crystal of the compound of formula (I) prepared in Example 4 was accurately weighed, and methanol was then added thereto to dissolve the crystal. It was diluted quantitatively to obtain a solution containing about 50 μg of the compound per 1 ml of the solution. 10 μl of the solution was accurately measured and injected into the liquid chromatograph, and the chromatogram was recorded. In addition, a suitable amount of the compound of formula (I) was weighed as a control, and measured by the same method as described in the above. The purity was calculated through external standard method based on peak areas.
Referring to the test method of influencing factors for raw materials described in the Chinese Pharmacopoeia, 2010 edition, Part II, Appendix XIX C, a high-temperature experiment (40° C.±2° C. and a relative humidity of 75%±5%) and strong light irradiation experiment (4500l×±500l×) were conducted on the crystal of the compound of formula (I) prepared in Example 4 for 10 days, respectively. Samples were taken on day 0 and day 10 to measure a total amount of impurities and determine the stability.

Total amount of impurities (%) (At 40° C., 10 days (40° C.±2° C., relative humidity 75%±5%)): 0.60% | Total amount of impurities (%) (Day 0): 0.57% | Total amount of impurities (%) (Irradiation for 10 days (strong light, 4500l×±500l×)): 0.68%
Compound: Cn1c(Nc2ccc(I)cc2Cl)c(C(=O)NOCCO)c2occc2c1=O [6-(2-chloro-4-iodophenylamino)-N-(2-hydroxylethyoxyl)-5-methyl-4-oxo-4,5-dihydrofuro[3,2-c]pyridine-7-carboxamide]
